Measurements as given in publication PMC6268071, “α-Glucosidase Inhibitory Constituents from Acanthopanax senticosus Harm Leaves” (Molecules, 2012).
Read-outs that look alike come from different tables or passages of the source.

Molecular target: α-Glucosidase (EC.3.2.1.20) from Saccharomyces sp.
Assay: α-Glucosidase inhibition assay
Format: biochemical
Description: Open column chromatography was carried out using silica gel (200–300 mesh, Qingdao Marine Chemical Co., Qingdao, China) or octadecyl silica gel (ODS, 25–40 μm, Fuji, Tokyo, Japan) as stationary phases. TLC employed precoated silica gel plates (5–7 μm, Qingdao Marine Chemical Co., Qingdao, China). Preparative HPLC was carried out on a Waters 600 instument equipped with a Waters RID-2414 detector. A Waters Sunfire prep C18 OBD (19 × 250 mm i.d.; Milford, PA, USA) column was used for preparative purposes. The IR spectra were recorded as KBr pellets on a Jasco 302-A spectrometer. Optical rotation was recorded on a Jasco P-2000 polarimeter. HRESIMS were measured on a FTMS-7 instrument (Bruker Daltonics, Karlsruhe, Germany). Melting points were determined on a Gallenkemp apparatus and are uncorrected. The ^1H-, ^13C- and 2D (^1H-^1H COSY, HSQC, HMBC, NOESY) NMR spectra were recorded on a Bruker AMX-400 spectrometer using standard pulse sequences. Chemical shifts are reported in ppm (δ), and scalar coupling are reported in Hz. GC analyses were carried out using a Fuli 9790 instrument, DM-5 column (0.25 μm, 30 m × 0.25 mm, Dikma, Beijing, China). α-Glucosidase (EC.3.2.1.20) from Saccharomyces sp. was purchased from Wako Pure Chemical Indutries Ltd. (Wako 076-02841; Osaka, Japan).
The α-glucosidase (EC.3.2.1.20) enzyme inhibition assay has been performed according to the literature. α-Glucosidase (25 μL, 0.2 U/mL), various concentrations of samples (25 μL), and 67 mM phosphate buffer (pH 6.8, 175 μL) were mixed at room temperature for 10 min. Reactions were initiated by the addition of 23.2 mM p-nitrophenyl-α-D-glucopyranoside (25 μL). The reaction mixtures were incubated at 37 °C for 15 min in a final volume of 250 μL, and then 1 M Na2CO3 (50 μL) was added to the incubation solution to stop the reaction. The activities of glucosidase were detected in a 96-well plate, and the absorbance was read at 405 nm by a microplate spectrophotometer (Spectra Max, Molecular Devices, Sunnyvale, CA, USA). The negative control was prepared by adding phosphate buffer instead of the sample in the same way as the test. […] The blank was prepared by adding phosphate buffer instead of α-glucosidase using the same method. The inhibition rates (%) were calculated from the formula: […]

[1] = in vitro α-glucosidase inhibitory assay, substrate p-nitrophenyl-α-D-glucopyranoside, pH 6.8, 37 °C, value ± SEM, read-out: IC50 (μM ± SEM)
[2] = read-out: α-glucosidase inhibitory activity IC50

For COC(=O)[C@H]1O[C@@H](O[C@H]2CC[C@@]3(C)C(CC[C@]4(C)C3CC=C3C5CC(C)(C)CC[C@]5(C(=O)O)CC[C@]34C)C2(C)C)[C@H](O[C@@H]2O[C@@H](C)[C@H](O)[C@@H](O)[C@H]2O)[C@@H](O)[C@@H]1O (stereo partly drawn) [Compound 1, 3-O-[(α-L-rhamnopyranosyl)(1→2)]-[β-D-glucuronopyranosyl-6-O-methyl ester]-olean-12-ene-28-olic acid], the IC50 [1] was 908 ± 67.3 µM and the IC50 [2] was 186 µM.
With COC(=O)[C@H]1O[C@@H](O[C@H]2CC[C@@]3(C)C(CC[C@]4(C)C3CC=C3C5CC(C)(C)CC[C@]5(C(=O)O)CC[C@]34C)C2(C)C)[C@H](O)[C@@H](O)[C@@H]1O (stereo partly drawn) [Compound 2, 3-O-(β-D-glucuronopyranosyl-6-O-methyl ester)-olean-12-ene-28-olic acid] the IC50 [1] was > 1000 µM.
For C=C(C)[C@@H]1CC[C@]2(C(=O)O[C@@H]3O[C@H](CO[C@@H]4O[C@H](CO)[C@@H](O[C@@H]5O[C@@H](C)[C@H](O)[C@@H](O)[C@H]5O)[C@H](O)[C@H]4O)[C@@H](O)[C@H](O)[C@H]3O)CC[C@]3(C)[C@H](C[C@H]4OC(=O)C[C@@H](O)[C@]5(C)[C@@H]4[C@@]3(C)CC[C@H]5C(=C)C)[C@@H]12 [Compound 3, chiisanoside], the IC50 [1] was > 1000 µM.
C=C(C)[C@@H]1C[C@H](O)[C@]2(C(=O)O[C@@H]3O[C@H](CO[C@@H]4O[C@H](CO)[C@@H](O[C@@H]5O[C@@H](C)[C@H](O)[C@@H](O)[C@H]5O)[C@H](O)[C@H]4O)[C@@H](O)[C@H](O)[C@H]3O)CC[C@]3(C)[C@H](C[C@H]4OC(=O)C[C@@H](O)[C@]5(C)[C@@H]4[C@@]3(C)CC[C@H]5C(=C)C)[C@@H]12 [Compound 4, 22α-hydroxychiisanoside] was tested, and the IC50 [1] was 820 ± 91.6 µM and the IC50 [2] was 908 µM.
COC(=O)CC1C(=O)Nc2ccc(OC)cc21 (stereo not drawn) [Compound 5, 5-methoxy-2-oxoindolin-3-acetic acid methyl ester] was tested, and the IC50 [1] was > 1000 µM.
For Oc1ccc([C@H]2Oc3cc(O)cc(O)c3C[C@@H]2O)cc1 [Compound 6, (+)-afzelechin], the IC50 [1] was 186 ± 12 µM, the “α-glucosidase inhibition activity (in words)” value (qualitative statement) was “significant α-glucosidase inhibition activity” and the IC50 [2] was 820 µM.
With OCc1ccc(-c2nccc3c2[nH]c2ccccc23)o1 [Compound 7, perlolyrine] the IC50 [1] was > 1000 µM.
For O=C(O)c1cc2c([nH]c3ccccc32)c(-c2ccc(CO)o2)n1 [Compound 8, 3-carboxylperlolyrine], the IC50 [1] was > 1000 µM.
